Laboratory results as given in patent US10294234B2, “HIV inhibitor compounds” (priority 2017, dated 2019).

How the values were obtained:
[1] = in vivo
[2] = 1 uM compound, NADPH
Summary of the method: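 Compounds at 1 uM were incubated in duplicate with dog, rat or human liver microsomes (0.5 mg/mL protein) and an NADPH-regenerating system, sampled at 2, 12, 25, 45 and 65 minutes. Remaining parent was measured by LC/MS/MS, and Clint was calculated from the in vitro t1/2.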

[3] = male beagle dogs, IV infusion over 30 minutes, 0.5 or 1.0 mg/kg

In the case of `COC(=O)N[C@H](C(=O)N[C@@H](Cc1ccc(C#Cc2ccc(N3CC4CCC(C3)N4C3COC3)nc2)cc1)[C@@H](O)CN(Cc1c(F)cc(-c2ccn(C(F)F)n2)cc1F)NC(=O)[C@@H](NC(=O)OC)C(C)(C)C(F)(F)F)C(C)(C)C(F)(F)F` [Example 58, Methyl ((5S,8S,9S,14S)-11-(4-(1-(difluoromethyl)-1H-pyrazol-3-yl)-2,6-difluorobenzyl)-16,16,16-trifluoro-9-hydroxy-15,15-dimethyl-8-(4-((6-(8-(oxetan-3-yl)-3,8-diazabicyclo[3.2.1]octan-3-yl)pyridin-3-yl)ethynyl)benzyl)-3,6,13-trioxo-5-(1,1,1-trifluoro-2-methylpropan-2-yl)-2-oxa-4,7,11,12-tetraazahexadecan-14-yl)carbamate], the “DOG IV CL” value [1, 3] was 0.47 L/h/kg, the “DOG IV T1/2” value [1, 3] was 13.8 h and the “DOG PO F” value ([1]; male beagle dogs, oral gavage, PO dose 2 mg/kg) was 18%. For the same molecule, the Vd ([1]; male, beagle, dog, plasma, iv) was 6.34 L/kg, the “Human Pred Cl.” value ([2]; human liver microsomes 0.5 mg/mL) was under 0.11 L/H/kg and the “Rat. Pred. Cl.” value ([2]; rat liver microsomes 0.5 mg/mL) was 0.24 L/H/kg.
